Consider 15 compounds from patent US12331044B2, “Inhibitors of histone deacetylase useful for the treatment or prevention of HIV infection” (Merck Sharp & Dohme LLC, priority 2018, dated 2025).

Assay [1] addresses T1, human HDAC1 (Homo sapiens (Human), UniProt Q13547). Nature of the assay: biochemical.
A further assay addresses human HDAC8 (Homo sapiens (Human), UniProt Q9BY41). Nature of the assay: HDAC8 inhibition assay (modified FLUOR DE LYS, 384-well). Particulars: 200 μM substrate BML-KI178, 3 h pre-incubation, read-out: HDAC8 IC50. It is filed as biochemical.
The target of assay [2] is T2, HDAC6 (Homo sapiens (Human), UniProt Q9UBN7). Kind of assay: biochemical.
The target of a further assay is human HDAC2 (Homo sapiens (Human), UniProt Q92769). Nature of the assay: HDAC2 inhibition assay (modified FLUOR DE LYS, 384-well). It is filed as biochemical. Conditions: 40 μM substrate BML-KI104, 3 h pre-incubation, read-out: HDAC2 IC50.
The subject of assay [3] is KARN cells (Jurkat 2C4). Particulars: luciferase induction, 2 μM SAHA = 100%.
Assay [4] has as its target T3, human HDAC3/SMRT heterodimer (Homo sapiens (Human), UniProt O15379). Nature of the assay: biochemical.
For assay [5], the system named is KARN cells (Jurkat 2C4). Nature of the assay: cells. Particulars: Homo sapiens.
Assay [6] concerns the target T3, human HDAC3/SMRT heterodimer.
In assay [7] the target is T1, human HDAC1.
The target of assay [8] is T2, HDAC6.
Where [9] appears, read: read-out: Karn EC50 nM 0.1% NHS, 0.1% normal human serum.
Where [10] appears, read: read-out: Karn EC50 nM 5% NHS, 5% normal human serum.
[11] abbreviates: read-out: Karn EC50 nM 0.1% NHS, 0.1% normal human serum, luciferase induction, 2 μM SAHA = 100%.
Setting [12] is: read-out: Karn EC50 nM 5% NHS, 5% normal human serum, luciferase induction, 2 μM SAHA = 100%.

Structures are written as SMILES. Read-outs that look alike come from different tables or passages of the source.

Sequence of human HDAC2 (Q92769 whole entry): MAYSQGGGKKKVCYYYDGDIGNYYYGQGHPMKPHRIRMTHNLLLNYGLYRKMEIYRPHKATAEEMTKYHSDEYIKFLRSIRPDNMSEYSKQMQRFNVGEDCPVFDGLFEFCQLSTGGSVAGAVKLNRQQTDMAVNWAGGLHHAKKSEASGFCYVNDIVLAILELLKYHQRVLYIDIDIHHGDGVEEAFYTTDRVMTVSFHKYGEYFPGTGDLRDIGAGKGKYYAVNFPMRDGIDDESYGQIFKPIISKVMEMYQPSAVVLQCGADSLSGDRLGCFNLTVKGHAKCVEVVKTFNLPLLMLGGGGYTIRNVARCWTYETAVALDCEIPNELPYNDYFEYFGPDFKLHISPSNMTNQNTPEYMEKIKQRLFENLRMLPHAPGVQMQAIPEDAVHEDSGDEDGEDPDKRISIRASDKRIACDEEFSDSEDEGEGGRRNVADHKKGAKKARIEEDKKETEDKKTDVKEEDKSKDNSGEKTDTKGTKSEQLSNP
T2 sequence (Q9UBN7 whole entry): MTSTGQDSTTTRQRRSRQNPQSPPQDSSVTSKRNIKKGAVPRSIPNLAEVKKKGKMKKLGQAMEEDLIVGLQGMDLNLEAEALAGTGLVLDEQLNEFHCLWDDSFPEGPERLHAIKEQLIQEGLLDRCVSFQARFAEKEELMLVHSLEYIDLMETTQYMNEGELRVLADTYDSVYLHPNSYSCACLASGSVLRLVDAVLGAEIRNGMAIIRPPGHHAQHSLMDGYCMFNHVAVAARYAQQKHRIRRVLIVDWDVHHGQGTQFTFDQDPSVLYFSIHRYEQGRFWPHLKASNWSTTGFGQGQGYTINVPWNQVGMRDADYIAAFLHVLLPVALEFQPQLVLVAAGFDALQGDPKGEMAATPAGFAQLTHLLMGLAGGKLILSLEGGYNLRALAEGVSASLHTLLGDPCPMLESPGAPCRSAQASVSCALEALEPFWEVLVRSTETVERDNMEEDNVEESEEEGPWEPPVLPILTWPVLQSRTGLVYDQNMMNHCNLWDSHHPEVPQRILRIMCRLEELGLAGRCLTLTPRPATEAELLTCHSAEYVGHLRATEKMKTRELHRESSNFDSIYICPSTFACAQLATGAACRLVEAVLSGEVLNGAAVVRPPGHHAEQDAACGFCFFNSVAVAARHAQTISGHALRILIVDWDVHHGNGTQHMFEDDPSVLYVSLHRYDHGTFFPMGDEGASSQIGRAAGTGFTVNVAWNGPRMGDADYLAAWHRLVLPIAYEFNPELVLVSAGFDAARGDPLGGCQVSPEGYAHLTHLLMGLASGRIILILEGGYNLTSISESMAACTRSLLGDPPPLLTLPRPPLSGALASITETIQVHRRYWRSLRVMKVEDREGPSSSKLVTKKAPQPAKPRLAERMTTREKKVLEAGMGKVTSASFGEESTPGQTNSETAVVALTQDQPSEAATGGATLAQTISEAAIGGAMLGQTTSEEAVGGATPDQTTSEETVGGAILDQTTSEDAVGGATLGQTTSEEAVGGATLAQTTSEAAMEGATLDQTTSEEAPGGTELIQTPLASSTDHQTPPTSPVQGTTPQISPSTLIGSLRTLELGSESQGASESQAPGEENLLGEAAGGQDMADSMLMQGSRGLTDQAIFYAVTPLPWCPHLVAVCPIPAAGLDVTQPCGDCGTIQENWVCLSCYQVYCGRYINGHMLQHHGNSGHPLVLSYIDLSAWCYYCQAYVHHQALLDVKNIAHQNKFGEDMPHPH
T1 sequence (Q13547 whole entry): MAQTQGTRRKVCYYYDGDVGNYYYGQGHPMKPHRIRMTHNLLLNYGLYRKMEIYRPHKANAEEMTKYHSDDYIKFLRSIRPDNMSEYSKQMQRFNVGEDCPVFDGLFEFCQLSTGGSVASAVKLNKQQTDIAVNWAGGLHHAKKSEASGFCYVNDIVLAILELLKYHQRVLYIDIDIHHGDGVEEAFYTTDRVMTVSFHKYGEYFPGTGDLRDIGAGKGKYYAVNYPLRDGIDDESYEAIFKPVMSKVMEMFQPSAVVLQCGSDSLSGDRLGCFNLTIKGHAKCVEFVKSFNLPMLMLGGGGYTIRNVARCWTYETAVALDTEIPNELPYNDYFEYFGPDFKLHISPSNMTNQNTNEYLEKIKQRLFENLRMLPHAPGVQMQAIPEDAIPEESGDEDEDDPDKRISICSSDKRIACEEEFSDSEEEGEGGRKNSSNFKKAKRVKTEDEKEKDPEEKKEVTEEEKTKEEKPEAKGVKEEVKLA
T3 sequence (O15379 whole entry): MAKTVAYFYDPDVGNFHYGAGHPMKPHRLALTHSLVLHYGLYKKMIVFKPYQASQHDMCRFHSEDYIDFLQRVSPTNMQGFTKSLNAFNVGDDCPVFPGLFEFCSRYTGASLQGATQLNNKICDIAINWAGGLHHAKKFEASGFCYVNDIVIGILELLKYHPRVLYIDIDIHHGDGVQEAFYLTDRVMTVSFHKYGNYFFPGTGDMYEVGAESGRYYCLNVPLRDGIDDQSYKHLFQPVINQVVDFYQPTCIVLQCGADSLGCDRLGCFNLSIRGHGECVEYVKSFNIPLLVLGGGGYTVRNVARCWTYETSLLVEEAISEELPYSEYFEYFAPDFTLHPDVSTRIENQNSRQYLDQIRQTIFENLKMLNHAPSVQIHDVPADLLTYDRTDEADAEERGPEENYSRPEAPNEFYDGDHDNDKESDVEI
T3 sequence (Q9Y618 1-899 partner): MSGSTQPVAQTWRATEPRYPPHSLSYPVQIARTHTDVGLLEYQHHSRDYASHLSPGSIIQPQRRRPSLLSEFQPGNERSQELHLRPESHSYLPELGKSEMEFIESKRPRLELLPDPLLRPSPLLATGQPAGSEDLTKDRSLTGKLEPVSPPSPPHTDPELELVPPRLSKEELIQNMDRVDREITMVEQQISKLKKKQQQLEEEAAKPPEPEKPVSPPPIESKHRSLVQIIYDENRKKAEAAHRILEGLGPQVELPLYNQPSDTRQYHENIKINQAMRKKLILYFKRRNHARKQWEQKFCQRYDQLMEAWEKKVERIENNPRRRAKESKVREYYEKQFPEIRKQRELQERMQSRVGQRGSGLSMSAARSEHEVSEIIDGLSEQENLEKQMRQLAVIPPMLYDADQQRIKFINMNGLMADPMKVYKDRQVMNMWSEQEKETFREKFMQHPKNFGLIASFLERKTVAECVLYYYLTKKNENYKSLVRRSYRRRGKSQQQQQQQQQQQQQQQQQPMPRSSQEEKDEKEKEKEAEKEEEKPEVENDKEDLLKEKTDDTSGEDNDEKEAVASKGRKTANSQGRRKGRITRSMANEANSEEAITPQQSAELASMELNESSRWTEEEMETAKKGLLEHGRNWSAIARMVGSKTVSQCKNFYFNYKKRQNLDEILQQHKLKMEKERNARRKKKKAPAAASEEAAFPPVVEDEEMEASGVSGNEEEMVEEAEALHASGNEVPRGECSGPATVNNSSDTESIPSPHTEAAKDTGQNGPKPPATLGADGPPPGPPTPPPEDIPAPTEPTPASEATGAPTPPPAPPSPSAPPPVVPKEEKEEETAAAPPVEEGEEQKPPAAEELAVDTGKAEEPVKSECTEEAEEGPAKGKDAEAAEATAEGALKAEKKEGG
Sequence of human HDAC8 (Q9BY41 whole entry): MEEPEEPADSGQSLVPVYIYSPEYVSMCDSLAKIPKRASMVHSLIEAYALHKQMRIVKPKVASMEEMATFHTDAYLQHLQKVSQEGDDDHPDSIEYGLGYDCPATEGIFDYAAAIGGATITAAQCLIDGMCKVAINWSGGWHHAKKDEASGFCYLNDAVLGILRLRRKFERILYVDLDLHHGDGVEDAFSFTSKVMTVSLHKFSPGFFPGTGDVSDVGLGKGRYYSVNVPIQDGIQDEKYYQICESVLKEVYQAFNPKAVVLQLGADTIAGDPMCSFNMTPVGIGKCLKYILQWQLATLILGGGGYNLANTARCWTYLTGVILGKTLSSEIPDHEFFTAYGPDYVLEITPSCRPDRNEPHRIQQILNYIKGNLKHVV

As usually defined, the IC50 is the point on the concentration scale where inhibition reaches its midpoint. What is called EC50 is the concentration giving half of the maximal effect. Regarding `Cc1ccc2cc(-c3cnc([C@H](CCCCCC(=O)c4ncco4)NC(=O)[C@H]4CC45CCN(C)CC5)o3)ccc2n1` [Example 109, (S)-6-methyl-N-((S)-1-(5-(2-methylquinolin-6-yl)oxazol-2-yl)-7-(oxazol-2-yl)-7-oxoheptyl)-6-azaspiro[2.5]octane-1-carboxamide], the half-maximal inhibitory concentration (IC50) at human HDAC1 [1] is 7.5 nM; on human HDAC8 ([…] nM enzyme), 5000 nM; against HDAC6 [2] it was 23 µM; on human HDAC2 ([…] nM enzyme), 39 nM; in assay [4] it was 7.5 nM. Besides, the figures for the EC50 in the assay with KARN cells (Jurkat 2C4) [3] (setting [9]) and in the assay with KARN cells (Jurkat 2C4) [3] (setting [10]) were 1700 nM and 2500 nM, respectively.

As for `COc1cc2nc(C)ccc2cc1-c1cnc([C@H](CCCCCC(=O)c2ccon2)NC(=O)[C@H]2CC23CCN(C)CC3)[nH]1` [Example 110, (S)-N-((S)-7-(isoxazol-3-yl)-1-(5-(7-methoxy-2-methylquinolin-6-yl)-1H-imidazol-2-yl)-7-oxoheptyl)-6-methyl-6-azaspiro[2.5]octane-1-carboxamide], the IC50 at human HDAC1 [1] stood at 0.18 nM; on human HDAC8 ([…] nM enzyme), 2.7 nM; at HDAC6 [2], 2.5 µM; at human HDAC2 ([…] nM enzyme), 0.87 nM; in assay [4] it was 0.18 nM. Besides, the EC50 in the assay on KARN cells (Jurkat 2C4) [5] (setting [11]) and in the assay on KARN cells (Jurkat 2C4) [5] (setting [12]) was 11 nM in each case.

As to `Cc1ccc2cc(-c3cnc(C(CCCCCC(=O)c4ncco4)NC(=O)[C@H]4CC45CCN(C)CC5)o3)ccc2n1` (stereo partly drawn) [Example 111, (1S)-6-methyl-N-(1-(5-(2-methylquinolin-6-yl)oxazol-2-yl)-7-(oxazol-2-yl)-7-oxoheptyl)-6-azaspiro[2.5]octane-1-carboxamide], the IC50 in [6] was 1.4 nM; on human HDAC8 ([…] enzyme), 520 nM; on human HDAC2 ([…] enzyme) it was 5.2 nM; against human HDAC1 [7], 0.76 nM; against HDAC6 [8], 430 nM. The EC50 is 70 nM in the assay on KARN cells (Jurkat 2C4) [3] (setting [9]) and 48 nM in the assay on KARN cells (Jurkat 2C4) [3] (setting [10]).

Regarding `COc1ncccc1-c1cnc(C(CCCCCC(=O)c2ncco2)NC(=O)[C@H]2CC23CCN(C)CC3)o1` (stereo partly drawn) [Example 114, (1S)-N-(1-(5-(2-methoxypyridin-3-yl)oxazol-2-yl)-7-(oxazol-2-yl)-7-oxoheptyl)-6-methyl-6-azaspiro[2.5]octane-1-carboxamide], the IC50 is 26 nM against human HDAC1 [1]; over 900 nM on human HDAC8 ([…] nM enzyme); over 0.9 µM against HDAC6 [2]; 120 nM on human HDAC2 ([…] nM enzyme); 13 nM in assay [4]. For the same compound, the EC50 came out at 3400 nM with KARN cells (Jurkat 2C4) [5] (setting [11]) and 4200 nM in the assay on KARN cells (Jurkat 2C4) [5] (setting [12]).

For `Cc1ccc2cc(-c3cnc([C@H](CCCCCC(=O)c4ncco4)NC(=O)C4=NOC5(CCN(C)CC5)C4)o3)ccc2n1` [Example 116, (S)-8-methyl-N-(1-(5-(2-methylquinolin-6-yl)oxazol-2-yl)-7-(oxazol-2-yl)-7-oxoheptyl)-1-oxa-2,8-diazaspiro[4.5]dec-2-ene-3-carboxamide], the IC50 at human HDAC1 [1] was 4.8 nM; at human HDAC8 ([…] nM enzyme), 250 nM; against HDAC6 [2], 4.1 µM; at human HDAC2 ([…] nM enzyme), 9.7 nM; in [4], 1.5 nM. Further, the EC50 in the assay with KARN cells (Jurkat 2C4) [5] (setting [11]) turned out to be 95 nM; in the assay on KARN cells (Jurkat 2C4) [5] (setting [12]), 120 nM.

Consider `COc1cc2nc(C)ccc2cc1-c1cnc([C@H](CCCCCC(=O)c2ncco2)NC(=O)C2CCC3(CC2)CN(C)C3)[nH]1` [Example 117, (S)-N-(1-(5-(7-methoxy-2-methylquinolin-6-yl)-1H-imidazol-2-yl)-7-(oxazol-2-yl)-7-oxoheptyl)-2-methyl-2-azaspiro[3.5]nonane-7-carboxamide], for which the half-inhibitory concentration (IC50) worked out at 0.82 nM at human HDAC1 [1]; 21 nM at human HDAC8 ([…] nM enzyme); 0.68 µM against HDAC6 [2]; 5.8 nM on human HDAC2 ([…] nM enzyme); 1.4 nM in [4]. For the same compound, the EC50 with KARN cells (Jurkat 2C4) [5] (setting [11]) and in the assay with KARN cells (Jurkat 2C4) [5] (setting [12]) was 320 nM throughout.

On to `COc1cc(-c2cnc([C@@H](N)CCCCCC(=O)c3ncco3)[nH]2)c(F)cn1` [Example 129, (S)-7-amino-7-(5-(5-fluoro-2-methoxypyridin-4-yl)-1H-imidazol-2-yl)-1-(oxazol-2-yl)heptan-1-one], for which the IC50 is 16 nM at human HDAC1 [1]; 2300 nM on human HDAC8 ([…] nM enzyme); at least 45 µM against HDAC6 [2]; 100 nM on human HDAC2 ([…] nM enzyme); 16 nM in assay [4]. Besides, the EC50 is 1600 nM in the assay with KARN cells (Jurkat 2C4) [5] (setting [11]) and 2900 nM in the assay on KARN cells (Jurkat 2C4) [5] (setting [12]).

As for `CCN1CCC2(CC1)C[C@@H]2C(=O)N[C@@H](CCCCCC(=O)c1ccon1)c1cc(-c2cc3ccc(C)nc3cc2OC)on1` [Example 145, (S)-6-ethyl-N-((S)-7-(isoxazol-3-yl)-1-(5-(7-methoxy-2-methylquinolin-6-yl)isoxazol-3-yl)-7-oxoheptyl)-6-azaspiro[2.5]octane-1-carboxamide], the IC50 was 3.4 nM on human HDAC1 [1]; 5.1 nM on human HDAC8 ([…] nM enzyme); over 0.9 µM against HDAC6 [2]; 14 nM at human HDAC2 ([…] nM enzyme); 4.2 nM in assay [4]. Also, the results for the EC50 in the assay on KARN cells (Jurkat 2C4) [5] (setting [11]) and in the assay on KARN cells (Jurkat 2C4) [5] (setting [12]) were 49 nM and 66 nM, respectively.

Regarding `COc1cc2nc(C)ccc2cc1-c1cnc([C@H](CCCCCC(=O)c2ncco2)NC(=O)C2COCCO2)[nH]1` (stereo partly drawn) [Example 174, N-[(1S)-1-[5-(7-methoxy-2-methylquinolin-6-yl)-1H-imidazol-2-yl]-7-(1,3-oxazol-2-yl)-7-oxoheptyl]-1,4-dioxane-2-carboxamide], the IC50 in assay [6] was 0.54 nM; on human HDAC8 ([…] enzyme), 110 nM; at human HDAC2 ([…] enzyme), 3.7 nM; at human HDAC1 [7], 1.4 nM; on HDAC6 [8], over 900 nM. The EC50 is 37 nM in the assay on KARN cells (Jurkat 2C4) [3] (setting [9]) and 80 nM in the assay on KARN cells (Jurkat 2C4) [3] (setting [10]).

Consider `N#Cc1nc(-c2ccc(F)cc2)[nH]c1[C@@H](N)CCCCCC(=O)c1ncco1` [Example 185, (S)-5-(1-amino-7-(oxazol-2-yl)-7-oxoheptyl)-2-(4-fluorophenyl)-1H-imidazole-4-carbonitrile], for which the IC50 on human HDAC1 [1] is 2.9 nM; at human HDAC8 ([…] nM enzyme), 6700 nM; on HDAC6 [2], at least 45 µM; at human HDAC2 ([…] nM enzyme) it was 15 nM; in assay [4], 3.9 nM. Moreover, the EC50 with KARN cells (Jurkat 2C4) [5] (setting [11]) was found to be 250 nM; with KARN cells (Jurkat 2C4) [5] (setting [12]) it was 690 nM.

As to `CN(C)CC(=O)N[C@@H](CCCCCC(=O)c1ncco1)c1[nH]c(-c2ccc(F)cc2)nc1C#N` [Example 186, (S)-N-(1-(4-cyano-2-(4-fluorophenyl)-1H-imidazol-5-yl)-7-(oxazol-2-yl)-7-oxoheptyl)-2-(dimethylamino)acetamide], the IC50 at human HDAC1 [1] was 0.28 nM; on human HDAC8 ([…] nM enzyme), 220 nM; at HDAC6 [2] it was at least 45 µM; on human HDAC2 ([…] nM enzyme) it was 1.7 nM; in assay [4], 0.39 nM. Besides, the EC50 was determined as 12 nM in the assay on KARN cells (Jurkat 2C4) [5] (setting [11]) and 21 nM with KARN cells (Jurkat 2C4) [5] (setting [12]).

On to `N#Cc1nc(-c2ccc(F)cc2)oc1[C@@H](N)CCCCCC(=O)c1ncco1` [Example 189, (S)-5-(1-amino-7-(oxazol-2-yl)-7-oxoheptyl)-2-(4-fluorophenyl)oxazole-4-carbonitrile], for which the IC50 was 26 nM at human HDAC1 [1]; 25000 nM on human HDAC8 ([…] nM enzyme); at least 45 µM against HDAC6 [2]; 250 nM at human HDAC2 ([…] nM enzyme); 45 nM in [4]. The results for the EC50 in the assay on KARN cells (Jurkat 2C4) [5] (setting [11]) and in the assay on KARN cells (Jurkat 2C4) [5] (setting [12]) were 3000 nM and 7400 nM, respectively.

Turning to `CN(C)CC(=O)N[C@@H](CCCCCC(=O)c1ncco1)c1oc(-c2ccc(F)cc2)nc1C#N` [Example 190], the IC50 on human HDAC1 [1] is 4.6 nM; at human HDAC8 ([…] nM enzyme), 3200 nM; against HDAC6 [2] it was at least 45 µM; on human HDAC2 ([…] nM enzyme), 21 nM; in assay [4], 3.2 nM. Besides, the EC50 came out at 240 nM in the assay with KARN cells (Jurkat 2C4) [5] (setting [11]) and 260 nM in the assay with KARN cells (Jurkat 2C4) [5] (setting [12]).

Turning to `N[C@@H](CCCCCC(=O)c1ccon1)c1nc(Cl)c(-c2ccc(F)cc2)[nH]1` [Example 193, (S)-7-amino-7-(4-chloro-5-(4-fluorophenyl)-1H-imidazol-2-yl)-1-(isoxazol-3-yl)heptan-1-one], the IC50 is 1.8 nM against human HDAC1 [1]; 1600 nM at human HDAC8 ([…] nM enzyme); at least 45 µM on HDAC6 [2]; 7.4 nM on human HDAC2 ([…] nM enzyme); 1.8 nM in [4]. Also, the EC50 in the assay on KARN cells (Jurkat 2C4) [5] (setting [11]) was found to be 130 nM; in the assay with KARN cells (Jurkat 2C4) [5] (setting [12]), 1800 nM.

Take `CN(C)CC(=O)N[C@@H](CCCCCC(=O)c1ccon1)c1nc(Cl)c(-c2ccc(F)cc2)[nH]1` [Example 194, (S)-N-(1-(4-chloro-5-(4-fluorophenyl)-1H-imidazol-2-yl)-7-(isoxazol-3-yl)-7-oxoheptyl)-2-(dimethylamino)acetamide]: the IC50 stood at 0.2 nM against human HDAC1 [1]; 19 nM at human HDAC8 ([…] nM enzyme); 9.5 µM against HDAC6 [2]; 0.69 nM at human HDAC2 ([…] nM enzyme); 0.1 nM in [4]. The concentration giving a half-maximal response (EC50) in the assay with KARN cells (Jurkat 2C4) [5] (setting [11]) worked out at 3.2 nM; with KARN cells (Jurkat 2C4) [5] (setting [12]), 15 nM.
